Laboratory results as given in patent US20120283099A1, “CONTROLLING PLANTHOPPERS” (priority 2011, published 2012).
Values joined by “and” are separate entries in the source; they are usually repeats but may differ in a detail not shown here. Equal values may be shown once.

Tested on: brown planthoppers, Nilaparvata lugens
Assay: Field efficacy on brown planthopper in transplanted rice (small-plot trials A-D)
Format: in vivo
Conditions: Sulfoxaflor 50 g/ha, Buprofezin 100 g/ha, mixture 50 + 100 g/ha
Protocol: Applications were made to transplanted rice, Oryza sativa, using small-plot efficacy methods. Chemicals were diluted in water and all treatments were applied using a backpack sprayer calibrated to deliver 500 liters of spray solution per hectare. Experimental plots measured 5 by 10 meters and each treatment was replicated three times in each trial. At the specified intervals after treatment, brown planthoppers, Nilaparvata lugens, were counted in 10 randomly selected hills per plot. Data were transformed to percent control relative to the untreated plots, then subjected to analysis of variance, and means were separated using Tukey's HSD (p=0.1). Expected control was calculated using the method of Colby and compared to observed control. See the Table Section for the results of the Field Trials.

[1] = Trial A, 1 DAT, relative to untreated plots

Compound | % Control [1] | % Control (Trial A, 3 DAT) | % Control (Trial A, 7 DAT) | % Control (Trial A, 10 DAT) | % Control (Trial A, 15 DAT) | % Control (Trial B, 1 DAT) | % Control (Trial B, 3 DAT) | % Control (Trial B, 7 DAT) | % Control (Trial B, 10 DAT) | % Control (Trial B, 15 DAT) | % Control (Trial C, 1 DAT) | % Control (Trial C, 3 DAT) | % Control (Trial C, 7 DAT) | % Control (Trial C, 10 DAT) | % Control (Trial C, 15 DAT) | % Control (Trial D, 1 DAT) | % Control (Trial D, 7 DAT) | % Control (Trial D, 10 DAT) | % Control (Trial D, 15 DAT)
CC(C)N1C(=O)N(c2ccccc2)CS/C1=N\C(C)(C)C [Buprofezin] | 34.9 a % and 34.9% | 72.4 b % and 72.4% | 72.4 b % and 72.4% | 49.4 b % and 49.4% | 49.0 b % and 49.0% | 24.5 a % and 24.5% | 73.0 b % and 73.0% | 80.2 b % and 80.2% | 63.2 b % and 63.2% | 67.7 b % and 67.7% | 31.2 ab % and 31.2% | 63.2 b % and 63.2% | 61.2 b % and 61.2% | 31.2 b % and 31.2% | 47.8 b % and 47.8% | 78.2 b % and 78.2% | 66.0 b % and 66.0% | 34.0 c % and 34.0% | 47.6 b % and 47.6%
CC(c1ccc(C(F)(F)F)nc1)S(C)(=O)=NC#N (centres unmarked) [Sulfoxaflor] | 11.2 b % and 11.2% | 43.5 c % and 43.5% | 32.8 c % and 32.8% | 6.8 c % and 6.9% | 19.3 c % and 19.3% | 29.4 a % and 29.4% | 63.6 b % and 63.6% | 62.8 c % and 62.8% | 48.8 b % and 48.8% | 50.3 c % and 50.3% | 13.5 bc % and 13.5% | 42.4 c % and 42.2% | 57.9 b % and 57.9% | 9.6 b % and 9.6% | 30.1 c % and 30.1% | 71.4 b % and 71.4% | 72.9 b % and 72.9% | 57.5 b % and 57.5% | 51.9 b % and 51.9%
